The target in experiment [1] is GDP-bound KRAS protein (aa 1-169), containing both G12C and C118A amino acid substitutions (Homo sapiens (Human), UniProt P01116, C118A/G12C). The experiment is described as follows: Coupled Nucleotide Exchange Assay. The class given is biochemical. As to the method: (§1) For compounds in Table 9, the following assay conditions were employed:
Coupled Nucleotide Exchange Assay:
The assay plates were then read on a PerkinElmer EnVision Multilabel Reader, using AlphaScreen® technology, and data were analyzed using a 4-parameter logistic model to calculate IC50 values.

Experiment [2] concerns Phosphorylation of ERK1/2 in A549 cells. The experiment is described as follows: Phospho-ERK1/2 MSD Assay (A549). The class given is cell-based. The settings on record: read-out: pERK IC50 (4 h, A549), 4 h compound treatment.
For experiment [3], the system named is Phosphorylation of ERK1/2 in MIA PaCa-2 cells. The experiment is described as follows: Phospho-ERK1/2 MSD Assay. It counts as cell-based. The following applies: MiaPaCa-2 cells. As for the experimental part: as §1
Phospho-ERK1/2 MSD Assay:
Sixteen hours prior to compound treatment, MIA PaCa-2 cells were seeded in 96-well cell culture plates at a density of 25,000 cells/well and incubated at 37° C., 5% CO2. […] Following compound treatment, cells were stimulated with 10 ng/mL EGF (Roche 11376454001) for 10 min, washed with ice-cold Dulbecco's phosphate-buffered saline, no Ca^2+ or Mg^2+ (ThermoFisher Scientific 14190144), and then lysed in RIPA buffer (50 mM Tris-HCl pH 7.5, 1% Igepal, 0.5% sodium deoxycholate, 150 mM NaCl, and 0.5% sodium dodecyl sulfate) containing protease inhibitors (Roche 4693132001) and phosphatase inhibitors (Roche 4906837001). […] Assay plates were read on a Meso Scale Discovery Sector Imager 6000, and data were analyzed using a 4-parameter logistic model to calculate IC50 values.

Setting [4] is: read-out: Coupled Exchange IC50 (2 h), 2 h compound pre-incubation.
Setting [5] is: read-out: pERK IC50 (4 h, MiaPaCa-2), 4 h compound treatment.
[6] abbreviates: Homo sapiens, MIA PaCa-2, 4 h, read-out: pERK IC50 (4 h, MiaPaCa-2), 4 h compound treatment.
Where [7] appears, read: read-out: Coupled Exchange IC50 (20 h), 20 h compound pre-incubation.

Where two headings read alike, the source gives them in different places.

GDP-bound KRAS protein (aa 1-169), containing both G12C and C118A amino acid substitutions, sequence (P01116 other isoform, or with tags, fused parts or gaps G12C/C118A): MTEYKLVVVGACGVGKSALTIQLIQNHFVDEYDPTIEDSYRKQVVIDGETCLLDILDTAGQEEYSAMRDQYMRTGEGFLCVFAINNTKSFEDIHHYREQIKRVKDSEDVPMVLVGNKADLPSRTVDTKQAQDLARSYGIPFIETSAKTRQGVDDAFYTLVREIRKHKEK

With `C=CC(=O)N1CC(NC(=O)Cn2c(C)c(C(=O)N3CCc4ccccc4[C@H]3C)c3cc(Br)cc(C)c32)C1` (stereo in doubt) [Example 2-2, 2-(5-Bromo-2,7-dimethyl-3-(((1R)-1-methyl-3,4-dihydro-2(1H)-isoquinolinyl)carbonyl)-1H-indol-1-yl)-N-(1-(2-propenoyl)-3-azetidinyl)acetamide|2-(5-bromo-2,7-dimethyl-3-(((1S)-1-methyl-3,4-dihydro-2(1H)-isoquinolinyl)carbonyl)-1H-indol-1-yl)-N-(1-(2-propenoyl)-3-azetidinyl)acetamide], the 50% inhibitory concentration (IC50) in experiment [1] (setting [4]) is 0.25 µM; in experiment [2] (Homo sapiens, A549, 4 h), 40.9 µM; in experiment [3] (setting [5]), 2.28 µM.

In the case of `C=CC(=O)N1CC(NC(=O)Cn2c(C)c(C(=O)N3[C@H](C)Cc4c(OC)cccc4[C@H]3C)c3cc(Br)cc(C)c32)C1` (stereo in doubt) [Example 2-3], the concentration for half-maximal inhibition (IC50) in experiment [1] (setting [4]) turned out to be 0.16 µM; in experiment [2] (Homo sapiens, A549, 4 h) it was 51.7 µM; in experiment [3] (setting [6]), 0.67 µM.

Take `C=CC(=O)N1CC(NC(=O)Cn2c(CC)c(C(=O)N3CCc4c(ccnc4OC)C3)c3cc(Cl)cc(C)c32)C1` [Example 1-1, 2-(5-Chloro-2-ethyl-3-((5-methoxy-3,4-dihydro-2,6-naphthyridin-2(1H)-yl)carbonyl)-7-methyl-1H-indol-1-yl)-N-(1-(2-propenoyl)-3-azetidinyl)acetamide]: the “Coupled Exchange IC50 (5 min)” value in experiment [1] (5 min compound pre-incubation) was 0.20 µM. Also, the “Coupled Exchange IC50 (2 h)” value in experiment [1] (2 h compound pre-incubation) was 0.07 µM. Moreover, the IC50 is greater than 100 µM in experiment [2] (Homo sapiens, A549, 4 h) and 0.09 µM in experiment [3] (setting [6]).

As to `C=CC(=O)N1CC(NC(=O)Cn2c(CC)c(C(=O)N3CCc4c(cccc4OC)C3)c3cc(Cl)cc(C)c32)C1` [Example 1-2, 2-(5-Chloro-2-ethyl-3-((5-methoxy-3,4-dihydro-2(1H)-isoquinolinyl)carbonyl)-7-methyl-1H-indol-1-yl)-N-(1-(2-propenoyl)-3-azetidinyl)acetamide], the concentration for half-maximal inhibition (IC50) in experiment [1] (setting [4]) was 0.06 µM; in experiment [2] (Homo sapiens, A549, 4 h) it was greater than 100 µM; in experiment [3] (setting [6]), 0.13 µM.

In the case of `C=CC(=O)N1CC(NC(=O)Cn2c(CC)c(C(=O)N3CCN(c4ccc(C#N)cn4)C[C@H]3C)c3cc(Cl)cc(C)c32)C1` [Example 1-3, 2-(5-Chloro-3-(((2R)-4-(5-cyano-2-pyridinyl)-2-methyl-1-piperazinyl)carbonyl)-2-ethyl-7-methyl-1H-indol-1-yl)-N-(1-(2-propenoyl)-3-azetidinyl)acetamide], the IC50 in experiment [1] (setting [4]) was 0.15 µM; in experiment [2] (Homo sapiens, A549, 4 h) it was greater than 100 µM; in experiment [3] (setting [6]) it was 1.31 µM.

Regarding `C=CC(=O)N1CC(NC(=O)Cn2c(C3CC3)c(C(=O)N3CCc4c(ccnc4OC)C3)c3cc(Cl)cc(C)c32)C1` [Example 1-4, 2-(5-Chloro-2-cyclopropyl-3-((5-methoxy-3,4-dihydro-2,6-naphthyridin-2(1H)-yl)carbonyl)-7-methyl-1H-indol-1-yl)-N-(1-(2-propenoyl)-3-azetidinyl)acetamide], the concentration for half-maximal inhibition (IC50) in experiment [1] (read-out: Coupled Exchange IC50 (5 min), 5 min compound pre-incubation) is 0.27 µM; in experiment [1] (setting [4]), 0.08 µM; in experiment [1] (setting [7]), 0.01 µM; in experiment [2] (Homo sapiens, A549, 4 h) it was greater than 100 µM; in experiment [3] (setting [6]) it was 0.15 µM.

Take `C=CC(=O)N1CC(NC(=O)Cn2c(CC3CC3)c(C(=O)N3CCc4c(cccc4OC)C3)c3cc(Cl)cc(C)c32)C1` [Example 1-5, 2-(5-Chloro-2-(cyclopropylmethyl)-3-((5-methoxy-3,4-dihydro-2(1H)-isoquinolinyl)carbonyl)-7-methyl-1H-indol-1-yl)-N-(1-(2-propenoyl)-3-azetidinyl)acetamide]: the IC50 in experiment [1] (setting [4]) is 0.08 µM; in experiment [2] (Homo sapiens, A549, 4 h), greater than 100 µM; in experiment [3] (setting [6]) it was 0.15 µM.

On to `C=CC(=O)N1CC(NC(=O)Cn2c(C3CC3)c(C(=O)N3CCOC4(CCC4)C3)c3cc(Cl)cc(C)c32)C1` [Example 1-6, 2-(5-Chloro-2-cyclopropyl-7-methyl-3-(5-oxa-8-azaspiro[3.5]nonan-8-ylcarbonyl)-1H-indol-1-yl)-N-(1-(2-propenoyl)-3-azetidinyl)acetamide], for which the IC50 was 0.72 µM in experiment [1] (setting [4]); greater than 100 µM in experiment [2] (Homo sapiens, A549, 4 h); 0.67 µM in experiment [3] (setting [6]).

As to `C=CC(=O)N1CC(NC(=O)Cn2c(C)c(C(=O)N3CCc4c(cccc4OC)C3)c3cc(Br)cc(C)c32)C1` [Example 2-1, 2-(5-Bromo-3-((5-methoxy-3,4-dihydro-2(1H)-isoquinolinyl)carbonyl)-2,7-dimethyl-1H-indol-1-yl)-N-(1-(2-propenoyl)-3-azetidinyl)acetamide], the IC50 was 0.11 µM in experiment [1] (setting [4]); 0.11 µM in experiment [1] (setting [7]); greater than 100 µM in experiment [2] (Homo sapiens, A549, 4 h); 0.3 µM in experiment [3] (setting [6]).

For the compound `C=CC(=O)N1CC(NC(=O)Cn2c(C)c(C(=O)N3CCc4ccccc4[C@H]3C)c3cc(Br)cc(C)c32)C1` [Example 2-2-1, 2-(5-Bromo-2,7-dimethyl-3-(((1R)-1-methyl-3,4-dihydro-2(1H)-isoquinolinyl)carbonyl)-1H-indol-1-yl)-N-(1-(2-propenoyl)-3-azetidinyl)acetamide], the IC50 came to 0.16 µM in experiment [1] (setting [4]), 47 µM in experiment [2] and 0.56 µM in experiment [3] (setting [5]).

In the case of `C=CC(=O)N1CC(NC(=O)Cn2c(C)c(C(=O)N3CCc4ccccc4[C@@H]3C)c3cc(Br)cc(C)c32)C1` [Example 2-2-2, 2-(5-Bromo-2,7-dimethyl-3-(((1S)-1-methyl-3,4-dihydro-2(1H)-isoquinolinyl)carbonyl)-1H-indol-1-yl)-N-(1-(2-propenoyl)-3-azetidinyl)acetamide], the half-inhibitory concentration (IC50) in experiment [1] (setting [4]) is 0.42 µM; in experiment [2] (Homo sapiens, A549, 4 h), 61 µM; in experiment [3] (setting [6]), 3.01 µM.

For the compound `C=CC(=O)N1CC(NC(=O)Cn2cc(C(=O)N3CCOC(c4ccccc4)C3)c3cc(Br)ccc32)C1` (stereo not shown) [Example 138], the 50% inhibitory concentration (IC50) is greater than 100 µM in experiment [2] (Homo sapiens, A549, 4 h) and 40.5 µM in experiment [3] (setting [6]).

Regarding `C=CC(=O)N1CC(NC(=O)Cn2cc(C(=O)N3CC4(CCN4c4ccccn4)C3)c3cc(Br)ccc32)C1` [Example 148], the IC50 was greater than 100 µM in experiment [2] (Homo sapiens, A549, 4 h) and 50.2 µM in experiment [3] (setting [6]).

For the compound `C=CC(=O)N1CC(NC(=O)Cn2cc(C(=O)NCCOc3ccccc3C)c3cc(Br)ccc32)C1` [Example 156], the concentration for half-maximal inhibition (IC50) in experiment [2] (Homo sapiens, A549, 4 h) was greater than 100 µM; in experiment [3] (setting [6]) it was 53.4 µM.

As for `C=CC(=O)N1CC(NC(=O)Cn2cc(C(=O)N3CCc4c(OC)ccc(Br)c4C3)c3cc(Br)ccc32)C1` [Example 157], the 50% inhibitory concentration (IC50) in experiment [2] (Homo sapiens, A549, 4 h) was found to be 42.5 µM; in experiment [3] (setting [6]), 53.6 µM.

In the case of `C=CC(=O)N1CC(NC(=O)Cn2cc(C(=O)N3CCN(c4ccc(CN(C)C)cn4)CC3)c3cc(Br)ccc32)C1` [Example 159], the IC50 is greater than 100 µM in experiment [2] (Homo sapiens, A549, 4 h) and 57.4 µM in experiment [3] (setting [6]).

On to `C=CC(=O)N1CC(NC(=O)Cn2cc(C(=O)N3CCN(c4ccc([N+](=O)[O-])cc4)CC3)c3cc(Br)ccc32)C1` [Example 166], for which the IC50 is greater than 100 µM in experiment [2] (Homo sapiens, A549, 4 h) and greater than 100 µM in experiment [3] (setting [6]).

For the compound `C=CC(=O)N1CC(NC(=O)Cn2cc(C(=O)NCCC(=O)Nc3ccccc3CC)c3cc(Br)ccc32)C1` [Example 167], the IC50 was greater than 100 µM in experiment [2] (Homo sapiens, A549, 4 h) and greater than 100 µM in experiment [3] (setting [6]).

In the case of `C=CC(=O)N1CC(NC(=O)Cn2cc(C(=O)NCCc3c(OC)ccc4ccccc34)c3cc(Br)ccc32)C1` [Example 168], the IC50 in experiment [2] (Homo sapiens, A549, 4 h) was greater than 100 µM; in experiment [3] (setting [6]), greater than 100 µM.

Regarding `C=CC(=O)N1CC(NC(=O)Cn2cc(C(=O)NCCC(=O)Nc3cc(C)ccc3C)c3cc(Br)ccc32)C1` [Example 169], the half-maximal inhibitory concentration (IC50) in experiment [2] (Homo sapiens, A549, 4 h) is greater than 100 µM; in experiment [3] (setting [6]) it was greater than 100 µM.

As to `C=CC(=O)N1CC(NC(=O)Cn2cc(C(=O)NCCc3nc4c(s3)CCCC4)c3cc(Br)ccc32)C1` [Example 171], the half-maximal inhibitory concentration (IC50) was greater than 100 µM in experiment [2] (Homo sapiens, A549, 4 h) and greater than 100 µM in experiment [3] (setting [6]).

`C=CC(=O)N1CC(NC(=O)Cn2cc(C(=O)NCCCc3nc(C)cs3)c3cc(Br)ccc32)C1` [Example 172]: the IC50 is greater than 100 µM in experiment [2] (Homo sapiens, A549, 4 h) and greater than 100 µM in experiment [3] (setting [6]).

Turning to `C=CC(=O)N1CC(NC(=O)Cn2cc(C(=O)NCCN(C)c3cccc(C)c3)c3cc(Br)ccc32)C1` [Example 173], the IC50 was greater than 100 µM in experiment [2] (Homo sapiens, A549, 4 h) and greater than 100 µM in experiment [3] (setting [6]).

On to `C=CC(=O)N1CC(NC(=O)Cn2cc(C(=O)NCCc3nc4ccccc4n3C)c3cc(Br)ccc32)C1` [Example 174], for which the IC50 in experiment [2] (Homo sapiens, A549, 4 h) is greater than 100 µM; in experiment [3] (setting [6]), greater than 100 µM.

With `C=CC(=O)N1CC(NC(=O)Cn2cc(C(=O)On3nnc4cccnc43)c3cc(Br)ccc32)C1` [Example 175], the half-inhibitory concentration (IC50) in experiment [2] (Homo sapiens, A549, 4 h) was greater than 100 µM; in experiment [3] (setting [6]) it was greater than 100 µM.

Regarding `C=CC(=O)N1CC(NC(=O)Cn2c(C)c(C(=O)NCCC(=O)Nc3ccccc3CC)c3cc(Br)ccc32)C1` [Example 179], the IC50 was greater than 100 µM in experiment [2] (Homo sapiens, A549, 4 h) and greater than 100 µM in experiment [3] (setting [6]).

By IC50 is commonly meant the point on the concentration scale where inhibition reaches its midpoint.

(Values after US11053226B2, “KRAS G12C inhibitors and methods of using the same” (Amgen Inc., priority 2018, dated 2021).)
